In a melting point compilation (Tetko et al.; mined from patent text by program, amines drawn as free bases though some values may be those of a salt):

melting point	Compound
95 to 98 °C	CCOC(=O)CSc1nc(Cl)cc(NCc2ccc(C)cc2C)n1
84 to 88 °C	CCCCN(C)Cc1c(-c2ccccc2)sc(N)c1C(=O)c1ccc(Cl)cc1
54.5 to 55 °C	Cc1ccc(N=C2SCS2)cc1
119 to 120 °C	CCOC(=O)Cc1nsc(NC(=O)c2ccccc2)n1
207 °C	CC1(C)Cc2c(N)c(Cl)cc(C(=O)NC3CCN(CCNc4nc(O)c5cc(Cl)ccc5n4)CC3)c2O1
169 to 172 °C	C#CCn1c(=O)n(C)c(=O)c2c1nc(Cl)n2Cc1ccccc1
183 to 184 °C	O=c1ccc(-c2ccco2)n[nH]1
> 300 °C	NCc1cccc2c1CN(c1nc3c(cc1F)c(=O)c(C(=O)O)cn3C1CC1)C2
158 to 160 °C	O=C(O)CSC(c1ccccc1)(c1ccccc1)c1ccccc1
227 to 228 °C	O=C(O)C=Cc1cn(-c2ccccc2)nc1-c1ccc(Cl)cc1
158 to 160 °C	COc1ccc2c(c1)c(CC(=O)O)c(C)n2C(=O)c1ccccc1
215 to 218 °C	O=C(O)Cc1c(C(=O)c2cccc(Br)c2)[nH]c2cc(Cl)ccc12
215 °C	COC(=O)c1c(C)n(-c2ccccc2)c(C)c(C(=O)OC)c1=O
189 to 191 °C	CCOC(=O)NNc1cc(C)c(-c2ccc(C#N)cc2)nn1
118 to 120 °C	O=C(c1ccc(Cl)cc1)c1cc[nH]c1
215 to 217 °C	Cc1nc(-n2[nH]c(C)c(Cc3ccc(Cl)cc3)c2=O)sc1C(=O)NCc1cccnc1
200 to 201 °C	Cc1c(Cc2cccc(C(F)(F)F)c2)oc2c(-c3cccc(C(=O)O)c3)cccc12
61 to 63 °C	FC(F)(F)c1nc(Cl)sc1C(=S)OCc1ccccc1
154 to 155 °C	COC(=O)c1cc(O)ccc1N
265 °C	CC=CCNc1cc(C(=O)O)cc(S(=O)(=O)Nc2ccc(NC(C)=O)cc2)c1Nc1ccc(NC(C)=O)cc1
110 °C	C=C(C(=O)O)c1ccc(Cl)cc1
166 to 168 °C	CCc1nn(C2CCC2)c2cc(C(=O)Nc3c(Cl)cncc3Cl)ccc12
171 °C	CCCc1nc(CSc2ccc(CCC(=O)O)cc2)c(C(=O)O)n1Cc1cc2c(cc1Cl)OCO2

melting point	Compound
129 °C	Cn1nnc2cc(C(O)c3ccccc3)ccc21 (centres undefined)
212 to 214 °C	CCOC(=O)C1=C(C)NC(O)(c2cccc(Cl)c2)C(C(=O)OCC)C1c1cccc([N+](=O)[O-])c1 (centres undefined)
104 to 106 °C	N#Cc1ccc2c(c1)C(=O)c1ccccc1CC2
148 °C	Cc1cc(C)nc(OC(C(=O)O)c2ccccc2)n1 (centres undefined)
295 to 296 °C	CC1COc2c(-c3ccccc3)ccc3c(=O)c(C(=O)O)cn1c23 (centres undefined)
170 to 172 °C	CC(=O)Oc1cccc2c1C(=O)C(CN1CCC(O)(c3ccccc3)CC1)CC2 (centres undefined)
58 to 59 °C	COc1ccc2nc(OC)cc(C)c2c1
93 to 94 °C	COC(=O)C(=O)c1ccc(OCCOc2ccc(OC)c(OC)c2)cc1
110 to 112 °C	CCOP(=O)(CC(=O)O)CC(Cc1ccccc1)NS(=O)(=O)c1ccc(C)cc1 (centres undefined)
53.5 to 54.5 °C	CN(Cc1ccccc1)c1nccc2ccccc12
308 to 312 °C	CC1=NC=CC(C)(c2c(F)cc3c(=O)c(C(=O)O)cn4c3c2OCC4C)C1 (centres undefined)
72 to 74 °C	CCOC(=O)C(C)(C#N)Cc1cc([N+](=O)[O-])ccc1Cl (centres undefined)
182 °C	Cc1nc(C(C)(C)C)ccc1/C=C/C(=O)Nc1ccc2cc[nH]c2c1
112 °C	CC(C)C=Cc1c(C(C)C)nc(C(C)C)c(CO)c1-c1ccc(F)cc1
79 to 81 °C	CN(C)C(=O)c1cnn(-c2ccccc2)c1Br
125 to 127 °C	COc1ccc(CN2CCC(c3cn(Cc4ccc(Cl)s4)c4cnccc34)CC2)cc1C(=O)O
238 to 240 °C	O=C(O)COc1ccc2c(-c3cc([N+](=O)[O-])ccc3F)noc2c1Cl
58 to 65 °C	CC(C)CCCC(C)NC(=O)CCC(=NNC(N)=S)c1ccccc1 (centres undefined)
139 to 140 °C	CC(=O)SCC(C(=O)Nc1oc(CCC(=O)O)c2ccccc12)C(F)(F)F (centres undefined)
186 to 188 °C	O=C(Nc1ccc2cc(CN3CCCC3)cnc2c1F)c1ccc(-c2ccccc2)cc1
> 360 °C	O=C(O)/C=C/c1ccc2c(/C=C/C(=O)O)c[nH]c2c1
185 °C	O=C1c2ccc(Cl)cc2CCc2c(O)cccc21
165 to 168 °C	Cc1ccc(S(=O)(=O)n2c(CCC(=O)O)cc3cc(Cl)ccc32)cc1

Second part, the compound before the results:

Compound	melting point
CCCCCC(C)(C)NC(=O)CN1C(=O)c2ccccc2C1=O	142 °C
CC(=O)NCC1CN(c2ccc(N3CCN(C(=O)COC(=O)CO)CC3)c(F)c2)C(=O)O1 (centres undefined)	105 to 107 °C
O=C(NCCNCC(O)COc1ccc(OCCOCC2CCC2)cc1)N1CCOCC1 (centres undefined)	91 to 93 °C
CCOC(=O)c1cccc(CSc2nc(-c3ccc(OC)cc3)c(-c3ccc(OC)cc3)[nH]2)c1	147 to 149 °C
CCCCc1oc2ccccc2c1C(=O)NCc1ccc2c(-c3ccc(OC)cc3)c(OCC#N)ccc2c1	139 to 142 °C
[N-]=[N+]=NC[C@H]1CN(c2ccc(Br)cn2)C(=O)O1	64 to 67 °C
COc1ccc(Cc2ccc3[nH]c(=S)[nH]c3c2)cc1OC	248 to 250 °C
CC1CCCN1CCCN1CCN(CCN2CCCC2)C1=C(C#N)C#N (centres undefined)	95 to 96 °C
Cn1cc(C2=C(c3cn(C)c4ccccc34)C(=O)NC2=O)c2ccccc21	> 300 °C
COC(=O)c1cc(S(C)(=O)=O)c(S(F)(F)(F)(F)F)cc1C	127 °C
O=C1C(=O)N(CCCCN2CCN(C(c3ccccc3)c3ccccc3)CC2)c2ccc(F)cc21	144 °C
N=c1nc(Nc2ccccc2)nc2[nH]c3ccccc3n12	> 300 °C
CN(C)C=Nn1cc(-c2ccc([N+](=O)[O-])o2)nn1	239 to 241 °C
CCCCCCCCCCCCCCCCCC(=O)Nc1ccc(NC(=O)NS(=O)(=O)c2ccc3ccccc3c2)cc1	192 °C
CNC(=NC#N)NCCS(=O)Cc1nsc(NC(=N)N)n1 (centres undefined)	185 to 186 °C
COc1cc(CCCCC2OC(=O)NC2=O)ccc1OCc1csc(/C=C/c2ccccc2)n1 (centres undefined)	167 to 168 °C
COc1ccc(N2CCOCC2)c2sc(NC(=O)N(C)[C@H]3CC[C@@H](OC)CC3)nc12	198 to 200 °C
CN(CCCO)CC1(SSC2(CN(C)CCCO)CCCCC2)CCCCC1	65 to 66 °C
O=C1NCc2cc(Br)sc21	96 to 97 °C
Cc1cc(C)c2nsnc2c1[N+](=O)[O-]	105 to 106 °C
O=C(NC12CC3CC(CC(C3)C1)C2)c1ccccc1C(c1ccc(O)cc1)c1ccc(O)cc1	167 to 169 °C
COC(=O)C=C1C(=O)N(C)C(=O)N1C	49.5 °C
CC[C@H](Nn1c([C@H](C)OC)nnc1[C@H](C)OC)C(OC)OC	67 to 68 °C
CC(=O)N1CCN=C1Nc1ccnn1-c1cccc(C(F)(F)F)c1	194 to 197 °C
COc1ccccc1CC(=NCc1cccs1)N1C[C@@H]2C(=O)CCC(c3ccccc3)(c3ccccc3)[C@@H]2C1	88 °C
Cc1ccc(OCC(=O)c2cc(C(C)(C)C)c(O)c(C(C)(C)C)c2)c(-n2nc3ccccc3n2)c1	155 to 157 °C
CCN(CC)c1ccc(N(c2ccc(N(CC)CC)cc2)C2(c3ccc(N(CC)CC)cc3C)OC(=O)c3ccccc32)cc1 (centres undefined)	58 to 71 °C

Compound	melting point
C=CSc1nc(-c2ccc(OC)cc2)c(-c2ccc(OC)cc2)[nH]1	114 to 115 °C
CC(=O)N1CCC(CCC(=O)c2cc3c4c(c2)CCN4C(=O)CC3)CC1	157 to 159 °C
CC(C)(C)OC(=O)N1CCC(C(=O)c2nc3ccccc3[nH]2)CC1	226 to 228 °C
CC[C@H](C1CC1)n1cc(Cl)nc(N2CCc3cc(Cl)cc(Cl)c32)c1=O	157 to 159 °C
O=c1ccc(-c2c(-c3ccccc3)nn3ccccc23)nn1-c1ccccc1	170 °C
N#CC1=C2C(=NC1=O)c1c(Sc3ccc(N)cc3)ccc3c(Sc4ccc(N)cc4)ccc2c13	288 to 290 °C
COc1cc(OCCCCN2CCCN(CCCCOc3cc(OC)c(OC)c(OC)c3)CC2)cc(OC)c1OC	124 to 126 °C
COc1cc(OC)nc(-n2c(SC)nc3ccccc32)n1	135 to 137 °C
CNc1ncc(-c2cc(Cl)cc(Cl)c2Cl)c(N)n1	155 to 157 °C
CCCCOc1c2ccccc2c(C=O)c2ccccc12	65 to 67 °C
Cc1ccc2cc(NC(=O)c3cccc(CCc4cc(Nc5ccccc5)n[nH]4)c3)ccc2n1	98 to 102 °C
N#Cc1cc(-c2c[nH]nc2-c2ccc(F)cc2)ccn1	209 °C
CC#CCOc1cc(Oc2ccc(F)cc2)ncn1	116 °C
CNC(=O)N(C)C(CCSC)P(=O)(O)O (centres undefined)	164 to 167 °C
COCCN(CCOC)C(=O)c1ccc([N+](=O)[O-])cc1[N+](=O)[O-]	89 °C
CCOCC1OC(n2cnc3c(NC4CCCC4)ncnc32)C(O)C1O (centres undefined)	134 to 136 °C
C=CCC(CC)(CC=C)C(=O)O[C@H]1C[C@H](O)C=C2C=C[C@H](C)[C@H](CC[C@@H]3C[C@@H](O)CC(=O)O3)[C@H]21	99 to 100 °C
O=c1ccccn1C1c2cc(S(=O)c3ccccc3)ccc2OCCC1O (centres undefined)	181 to 184 °C
NCc1c(Cc2ccccc2)nc2ccc(OCC(N)=O)cc2c1-c1ccccc1	180 to 182 °C
O=c1cc(-c2ccncc2)nc(-c2cccnc2)[nH]1	> 300 °C
COCCOC(=O)C1=C(C)Nc2cc[nH]c(=O)c2C1c1ccccc1[N+](=O)[O-] (centres undefined)	265 °C
CCOC(=O)c1cc2c([nH]1)c(N(C)S(=O)(=O)c1cccs1)cn2CC	122 °C
CCCCOCCOc1ccc(-c2ccc3c(c2)C=C(C(=O)O)CCN3c2ccc(S(=O)(=O)N(C)C)cc2)cc1	236 to 238 °C
O=C(N[C@H]1CCN(CCc2ccc(F)cc2)C1)n1c2ccccc2c2ccccc21	107 to 108 °C
CCCCCCCCC1=C(Cl)C(=O)c2ccccc2C1=O	69 to 70 °C
CC12CCC(=O)C=C1CCC1C2CCC2(C)C1CCC2(OC=O)C(=O)CCl (centres undefined)	202 °C
